The record followed here is paper PMC9674958 (Proceedings of the National Academy of Sciences of the …, 2022).

Molecules are shown by their SMILES.

Test [1] concerns tyrosinase (TYR) of N. parkeri. Briefly: absorbance at […] nm, Lineweaver-Burk fit. The test is classed as biochemical, Nanorana parkeri. The note with it: 15 uM CuSO4, 50 mM Na2HPO4, pH 6.2; L-DOPA 0.625-10 mM.
Test [2] has as its system tyrosinase (TYR) of Q. spinosa. Briefly: absorbance at […] nm, Lineweaver-Burk fit. The test is classed as biochemical, Quasipaa spinosa. The note with it: 15 uM CuSO4, 50 mM Na2HPO4, pH 6.2; L-DOPA 0.625-10 mM.

For the compound `N[C@@H](Cc1ccc(O)c(O)c1)C(=O)O` [L-DOPA], the Km in test [1] is 0.130 ± 0.073 mM/L; in test [2] it was 0.1663 ± 0.117 mM/L.
